According to PubChem BioAssay (NCI):
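The concentration for 50% growth inhibition is given as GI50. TGI is the concentration that stops growth completely.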

Legend:
Assay in all cases: NCI anticancer screen, dose series, 384-well format
HL-60(TB) leukemia = test system: HL-60(TB) leukemia
SK-MEL-28 melanoma = test system: SK-MEL-28 melanoma
COLO 205 colon = test system: COLO 205 colon
PC-3 prostate = test system: PC-3 prostate
RPMI-8226 leukemia = test system: RPMI-8226 leukemia
SK-MEL-5 melanoma = test system: SK-MEL-5 melanoma
SNB-19 CNS = test system: SNB-19 CNS
U251 glioblastoma = test system: U251 glioblastoma
HCT-15 colon = test system: HCT-15 colon
CAKI-1 renal = test system: CAKI-1 renal
RXF 393 renal = test system: RXF 393 renal
SR leukemia = test system: SR leukemia
NCI-H460 NSCLC = test system: NCI-H460 NSCLC
SF-295 CNS = test system: SF-295 CNS
MDA-MB-435 melanoma = test system: MDA-MB-435 melanoma
IGROV1 ovarian = test system: IGROV1 ovarian
HOP-92 NSCLC = test system: HOP-92 NSCLC
A498 renal = test system: A498 renal
SN12C renal = test system: SN12C renal
UACC-62 melanoma = test system: UACC-62 melanoma
K-562 leukemia = test system: K-562 leukemia
SF-539 CNS = test system: SF-539 CNS
HOP-62 NSCLC = test system: HOP-62 NSCLC
UO-31 renal = test system: UO-31 renal
MDA-MB-468 breast = test system: MDA-MB-468 breast
HCC-2998 colon = test system: HCC-2998 colon
SF-268 CNS = test system: SF-268 CNS
NCI-H522 lung = test system: NCI-H522 lung
TK-10 renal = test system: TK-10 renal
HT29 colon = test system: HT29 colon
ACHN renal = test system: ACHN renal
MCF7 breast = test system: MCF7 breast
DU-145 prostate = test system: DU-145 prostate
NCI/ADR-RES ovarian = test system: NCI/ADR-RES ovarian
HS 578T breast = test system: HS 578T breast
SNB-75 CNS = test system: SNB-75 CNS
MALME-3M melanoma = test system: MALME-3M melanoma
NCI-H322M lung = test system: NCI-H322M lung
T-47D breast = test system: T-47D breast
M14 melanoma = test system: M14 melanoma
CCRF-CEM leukemia = test system: CCRF-CEM leukemia
SK-OV-3 ovarian = test system: SK-OV-3 ovarian
KM12 colon = test system: KM12 colon
A549 NSCLC = test system: A549 NSCLC
786-0 renal = test system: 786-0 renal
LOX IMVI melanoma = test system: LOX IMVI melanoma
HCT-116 colon = test system: HCT-116 colon
OVCAR-8 ovarian = test system: OVCAR-8 ovarian
UACC-257 melanoma = test system: UACC-257 melanoma
BT-549 breast = test system: BT-549 breast
OVCAR-4 ovarian = test system: OVCAR-4 ovarian
EKVX NSCLC = test system: EKVX NSCLC
NCI-H226 lung = test system: NCI-H226 lung
OVCAR-3 ovarian = test system: OVCAR-3 ovarian
SW-620 colon = test system: SW-620 colon
MDA-MB-231 breast = test system: MDA-MB-231 breast
NCI-H23 lung = test system: NCI-H23 lung

CC(C)S(=O)(=O)c1ccccc1Nc1nc(Nc2cccc(NC(=O)CN)c2)ncc1Cl
GI50 (HL-60(TB) leukemia): < 10 nM | TGI (HL-60(TB) leukemia): < 10 nM | GI50 (SK-MEL-28 melanoma): 217 nM | TGI (SK-MEL-28 melanoma): 1290 nM | GI50 (COLO 205 colon): 19.4 nM | TGI (COLO 205 colon): 128 nM | GI50 (PC-3 prostate): 237 nM | TGI (PC-3 prostate): 1490 nM | GI50 (RPMI-8226 leukemia): 20.3 nM | TGI (RPMI-8226 leukemia): 60.7 nM | GI50 (SK-MEL-5 melanoma): 56.3 nM | TGI (SK-MEL-5 melanoma): 229 nM | GI50 (SNB-19 CNS): 141 nM | TGI (SNB-19 CNS): 6120 nM | GI50 (U251 glioblastoma): 193 nM | TGI (U251 glioblastoma): 1600 nM | GI50 (HCT-15 colon): 152 nM | TGI (HCT-15 colon): 1250 nM | GI50 (CAKI-1 renal): 124 nM | TGI (CAKI-1 renal): 866 nM | GI50 (RXF 393 renal): 21.4 nM | TGI (RXF 393 renal): 167 nM | GI50 (SR leukemia): < 10 nM | TGI (SR leukemia): < 10 nM | GI50 (NCI-H460 NSCLC): < 10 nM | TGI (NCI-H460 NSCLC): 335 nM | GI50 (SF-295 CNS): 89.1 nM | TGI (SF-295 CNS): 11400 nM | GI50 (MDA-MB-435 melanoma): 168 nM | TGI (MDA-MB-435 melanoma): 1300 nM | GI50 (IGROV1 ovarian): 141 nM | TGI (IGROV1 ovarian): 383 nM | GI50 (HOP-92 NSCLC): 135 nM | TGI (HOP-92 NSCLC): 463 nM | GI50 (A498 renal): 186 nM | TGI (A498 renal): 11400 nM | GI50 (SN12C renal): 149 nM | TGI (SN12C renal): 518 nM | GI50 (UACC-62 melanoma): 34.8 nM | TGI (UACC-62 melanoma): 213 nM | GI50 (K-562 leukemia): 25 nM | TGI (K-562 leukemia): 242 nM | GI50 (SF-539 CNS): 47.2 nM | TGI (SF-539 CNS): 216 nM | GI50 (HOP-62 NSCLC): 39.1 nM | TGI (HOP-62 NSCLC): 680 nM | GI50 (UO-31 renal): 218 nM | TGI (UO-31 renal): 10700 nM | GI50 (MDA-MB-468 breast): 17.4 nM | TGI (MDA-MB-468 breast): 42 nM | GI50 (HCC-2998 colon): 187 nM | TGI (HCC-2998 colon): 659 nM | GI50 (SF-268 CNS): 30.7 nM | TGI (SF-268 CNS): 223 nM | GI50 (NCI-H522 lung): 77.1 nM | TGI (NCI-H522 lung): 622 nM | GI50 (TK-10 renal): 185 nM | TGI (TK-10 renal): 2560 nM | GI50 (HT29 colon): 184 nM | TGI (HT29 colon): 1160 nM | GI50 (ACHN renal): 200 nM | TGI (ACHN renal): 14700 nM | GI50 (MCF7 breast): 30.1 nM | TGI (MCF7 breast): 685 nM | GI50 (DU-145 prostate): 79.1 nM | TGI (DU-145 prostate): 1710 nM | GI50 (NCI/ADR-RES ovarian): 72.7 nM | TGI (NCI/ADR-RES ovarian): 1140 nM | GI50 (HS 578T breast): 45.5 nM | TGI (HS 578T breast): 205 nM | GI50 (SNB-75 CNS): 23.8 nM | TGI (SNB-75 CNS): 189 nM | GI50 (MALME-3M melanoma): 399 nM | TGI (MALME-3M melanoma): 1560 nM | GI50 (NCI-H322M lung): 389 nM | TGI (NCI-H322M lung): 1730 nM | GI50 (T-47D breast): 480 nM | TGI (T-47D breast): 3320 nM | GI50 (M14 melanoma): 17.7 nM | TGI (M14 melanoma): 493 nM | GI50 (CCRF-CEM leukemia): < 10 nM | TGI (CCRF-CEM leukemia): < 10 nM | GI50 (SK-OV-3 ovarian): 290 nM | TGI (SK-OV-3 ovarian): 7900 nM | GI50 (KM12 colon): 19.1 nM | TGI (KM12 colon): 474 nM | GI50 (A549 NSCLC): 106 nM | TGI (A549 NSCLC): 7360 nM | GI50 ([…]-0 renal): 182 nM | TGI (786-0 renal): 2080 nM | GI50 (LOX IMVI melanoma): 25.8 nM | TGI (LOX IMVI melanoma): 180 nM | GI50 (HCT-116 colon): < 10 nM | TGI (HCT-116 colon): 164 nM | GI50 (OVCAR-8 ovarian): 87.5 nM | TGI (OVCAR-8 ovarian): 308 nM | GI50 (UACC-257 melanoma): 324 nM | TGI (UACC-257 melanoma): 1440 nM | GI50 (BT-549 breast): 49.5 nM | TGI (BT-549 breast): 193 nM | GI50 (OVCAR-4 ovarian): 377 nM | TGI (OVCAR-4 ovarian): 2070 nM | GI50 (EKVX NSCLC): 150 nM | TGI (EKVX NSCLC): 1710 nM | GI50 (NCI-H226 lung): 49.5 nM | TGI (NCI-H226 lung): 354 nM | GI50 (OVCAR-3 ovarian): 57.1 nM | TGI (OVCAR-3 ovarian): 290 nM | GI50 (SW-620 colon): 29.2 nM | TGI (SW-620 colon): 436 nM | GI50 (MDA-MB-231 breast): 93.2 nM | TGI (MDA-MB-231 breast): 445 nM | GI50 (NCI-H23 lung): 107 nM | TGI (NCI-H23 lung): 247 nM
